From US7223759B2, “Antibacterial 3,5-diaminopiperidine-substituted aromatic and heteroaromatic compounds” (Anadys Pharmaceuticals, Inc., priority 2003, dated 2007)
Where two headings read alike, the source gives them in different places.

Tested on: Escherichia coli (ATCC25922) or Staphylococcus aureus (ATCC25923)
Experiment: Antibacterial MIC, microdilution method in Mueller-Hinton medium
Type: cell-based
Settings: Escherichia coli, 18 h, read-out: Potency (MIC)
Summary of the method: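 Read after 18 h incubation at 35° C, MIC is the lowest compound level that blocked growth. Compounds were tested in duplicate over 64–0.5 μg/ml two-fold dilutions using Mueller-Hinton microdilution per NCCLS standard.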

[1] = MIC in E. coli or S. aureus, two-fold serial dilutions 64 to 0.5 μg/ml in duplicate, 18 hours of incubation at 35° C.

| Structure (SMILES) | MIC [1] | MIC |
| --- | --- | --- |
| N[C@@H]1C[C@H](N)CN(c2nc(NC3CCNC3)nc(N3C[C@H](N)C[C@H](N)C3)n2)C1 (stereo partly drawn) [N-pyrrolidin-3-yl-4,6-Bis-((#r,5S)-3,5-diamino-piperidin-1-yl)-[1,3,5]triazine-2-amine] | > 64 µg/mL |  |
| Cl.N[C@@H]1C[C@H](N)CN(c2nc(Nc3ccc(O)c4ccccc34)nc(N3C[C@H](N)C[C@H](N)C3)n2)C1 [N-(4-hydroxy-naphthalen-1-yl)-4,6-Bis-((3R,5S)-3,5-diamino-piperidin-1-yl)-[1,3,5]triazine-2-amine] | < 16 µg/mL |  |
| Cl.O=C(Oc1ccccc1)c1ccc(Nc2nc(N3CCCCC3)nc(N3CCCC3)n2)cc1O [4-[4-((3S,5R)-3,5-Diamino-piperidin-1-yl)-6-((3R,4S)-3,4-dihydroxy-pyrrolidin-1-yl)-[1,3,5]triazin-2-ylamino]-2-hydrooxy-benzoic acidphenyl ester] | < 64 µg/mL |  |
| N[C@@H]1C[C@H](N)CN(c2nc(Nc3ccc([N+](=O)[O-])c(Cl)c3)nc(N3C[C@H](N)C[C@H](N)C3)n2)C1 [N-(3-chloro-4-nitro-phenyl)-4,6-Bis-((3R,5S)-3,5-diamino-piperidin-1-yl)-[1,3,5]triazine-2-amine] |  | < 16 µg/mL |
| COc1ccc(Nc2nc(N3C[C@H](N)C[C@H](N)C3)nc(N3C[C@H](N)C[C@H](N)C3)n2)cc1 [N-(4-methoxy-phenyl)-4,6-Bis-((3R,5S)-3,5-diamino-piperidin-1-yl)-[1,3,5]triazine-2-amine] |  | > 64 µg/mL |
| N[C@@H]1C[C@H](N)CN(c2nc(Nc3ccc(NC(=O)c4ccc(Cl)cc4)c(O)c3)nc(N3C[C@H](O)C[C@@H](O)C3)n2)C1 [4-Chloro-N-{4-[4-((3S,5R)-3,5-diamino-piperidin-1-yl)-6-((3R,5R)-3,5-dihydroxy-piperidin-1-yl)-[1,3,5]triazin-2-ylamino]-2-hydroxy-phenyl}-benzamide] |  | < 64 µg/mL |
| N[C@@H]1C[C@H](N)CN(c2nc(Nc3ccc(S(N)(=O)=O)cc3)nc(N3C[C@H](N)C[C@H](N)C3)n2)C1 [N-(4-sulfamoyl-phenyl)-4,6-Bis-((3R,5S)-3,5-diamino-piperidin-1-yl)-[1,3,5]triazine-2-amine] |  | > 64 µg/mL |
| N[C@@H]1C[C@H](N)CN(c2nc(NC3CCCNC3)nc(N3C[C@H](N)C[C@H](N)C3)n2)C1 (stereo partly drawn) [N-piperidin-3-yl-4,6-Bis-((3R,5S)-3,5-diamino-piperidin-1-yl)-[1,3,5]triazine-2-amine] | > 64 µg/mL |  |
| NC[C@@H]1C[C@H](CN)CN(c2nc(Nc3ccc(NC(=O)c4ccc(Cl)cc4)c(O)c3)nc(N3C[C@H](N)C[C@H](N)C3)n2)C1 [N-{4-[4-((3R,5S)-3,5-Bis-(aminomethyl)-piperidin-1-yl)-6-((3R,5S)-3,5-diamino-piperidin-1-yl)-[1,3,5]triazin-2-ylamino]-2-hydroxy-phenyl}-4-chloro-benzamide] |  | < 16 µg/mL |
| N[C@@H]1C[C@H](N)CN(c2nc(Nc3ccc(C(=O)CC(=O)Nc4cccc(C(F)(F)F)c4)cc3)nc(N3C[C@H](N)C[C@H](N)C3)n2)C1 [N-{4-[2-(3-trifluoromethyl-phenylcarbamoyl)-acetyl]-phenyl}-4,6-Bis-((3R,5S)-3,5-diamino-piperidin-1-yl)-[1,3,5]triazine-2-amine] |  | < 16 µg/mL |
| NC[C@@H]1CN(c2nc(Nc3ccc(NC(=O)c4ccc5ccccc5c4O)cc3)nc(N3C[C@H](N)C[C@H](N)C3)n2)CC[C@@H]1O [1-Hydroxy-naphthalene-2-carboxylic acid {4-[4-((3R,4S)-3-aminomethyl-4-hydroxy-piperidin-1-yl)-6-((3R,5S)-3,5-diamino-piperidin-1-yl)-[1,3,5]triazin-2-ylamino]-phenyl}-amide] |  | < 16 µg/mL |
| Cc1cc(=O)oc2cc(Nc3nc(N4C[C@H](N)C[C@H](N)C4)nc(N4C[C@H](CN)C[C@H](CN)C4)n3)ccc12 [7-[4-((3S,5R)-3,5-Bis-(aminomethyl)-piperidin-1-yl)-6-((3R,5S)-3,5-diamino-piperidin-1-yl)-[1,3,5]triazin-2-ylamino]-4-methyl-chromen-2-one] |  | > 64 µg/mL |
| N=C(N)Nc1ccc(Nc2nc(N3CCCCC3)nc(N3CCCCC3)n2)cc1 [N-(4-quanidino-phenyl)-4,6-Bis-((3R,5S)-3,5-diamino-piperidin-1-yl)-[1,3,5]triazine-2-amine] | < 64 µg/mL |  |
| CC(=O)c1ccc(Nc2nc(N3C[C@H](N)C[C@H](N)C3)nc(N3CC[C@H](O)[C@@H]3CN)n2)cc1 [1-{4-[4-((2S,3S)-2-Aminomethyl-3-hydroxy-pyrrolidin-1-yl)-6-((3R,5S)-3,5-diamino-piperidin-1-yl)-[1,3,5]triazin-2-ylamino]-phenyl}-ethanone] |  | > 64 µg/mL |
| N[C@@H]1C[C@H](N)CN(c2nc(Nc3ccc(NC(=O)c4ccccc4)c(O)c3)nc(N3C[C@H](N)C[C@H](N)C3)n2)C1 [N-(4-benzoylamino-3-hydroxy-phenyl)-4,6-Bis-((3R,5S)-3,5-diamino-piperidin-1-yl)-[1,3,5]triazine-2-amine] |  | < 16 µg/mL |
| Cl.O=C(Nc1ccc(Nc2nc(N3CCCCC3)nc(N3CCCCC3)n2)cc1)c1ccc2ccccc2c1O [1-Hydroxy-naphthalene-2-carboxylic acid {4-[4-((3S,5R)-3,5-diamino-piperidin-12-yl)-6-((3R,5R)-3,5-dihydroxy-piperidin-1-yl)-[1,3,5]triazin-2-ylamino]-phenyl}-amide] | < 64 µg/mL |  |
| N[C@@H]1C[C@H](N)CN(c2nc(Nc3ccc(NC(=O)c4ccc(Cl)cc4)c(O)c3)nc(N3CCN(c4ccncc4)CC3)n2)C1 [4-Chloro-N-{4-[4-((3S,5R)-3,5-diamino-piperidin-1-yl)-6-(4-pyridin-4-yl-piperazin-1-yl)-[1,3,5]triazin-2-ylamino]-2-hydroxy-phenyl}-benzamide] |  | < 64 µg/mL |
| COc1ccc(NC(=O)c2ccc(C)cc2O)c(Nc2nc(N3C[C@H](N)C[C@H](N)C3)nc(N3C[C@H](N)C[C@H](N)C3)n2)c1 [N-[2-(2-hydroxy-4-methyl-benzoylamino)-5-methoxy-phenyl]-4,6-Bis-((3R,5S)-3,5-diamino-piperidin-1-yl)-[1,3,5]triazine-2-amine] |  | > 64 µg/mL |
| CCN(CC)c1ccc(Nc2nc(N3C[C@H](N)C[C@H](N)C3)nc(N3C[C@H](N)C[C@H](N)C3)n2)cc1 [N-(4-diethylamino-phenyl)-4,6-Bis-((3R,5S)-3,5-diamino-piperidin-1-yl)-[1,3,5]triazine-2-amine] |  | > 64 µg/mL |
| Cc1cc(=O)oc2cc(Nc3nc(N4C[C@H](N)C[C@H](N)C4)nc(N4C[C@H](N)C[C@H](N)C4)n3)ccc12 [N-(4-methyl-2-oxo-2H-chromen-7-yl)-4,6-Bis-((3R,5S)-3,5-diamino-piperidin-1-yl)-[1,3,5]triazine-2-amine] |  | < 16 µg/mL |
| Cl.O=C(Nc1ccc(O)cc1)c1ccc(Nc2nc(N3CCCCC3)nc(N3CCCCC3)n2)cc1O [N-[3-hydroxy-4-(4-hydroxy-phenylcarbamoyl)-phenyl]-4,6-Bis((3R,5S)-3,5-0diamino-piperidin-1-yl)-[1,3,5]triazine-2-amine] | < 16 µg/mL |  |
| COc1cccc(C(=O)Nc2ccc(Nc3nc(N4C[C@H](N)C[C@H](N)C4)nc(N4C[C@H](N)C[C@H](N)C4)n3)cc2Cl)c1O [N-[3-chloro-4-(2-hydroxy-3-methoxy-benzoylamino)-phenyl]-4,6-Bis-((3R,5S)-3,5-diamino-piperidin-1-yl)-[1,3,5]triazine-2-amine] |  | < 16 µg/mL |
| N[C@@H]1C[C@H](N)CN(c2nc(Nc3ccc(NC(=O)c4ccc(Cl)cc4O)c(F)c3)nc(N3C[C@H](N)C[C@H](N)C3)n2)C1 [N-[4-(4-chloro-2-hydroxy-benzoylamino)-3-fluoro-phenyl]-4,6-Bis-((3R,5S)-3,5-diamino-piperidin-1-yl)-[1,3,5]triazine-2-amine] |  | < 16 µg/mL |
| CN(c1nc(N2C[C@H](N)C[C@H](N)C2)nc(N2C[C@H](N)C[C@H](N)C2)n1)C1CCN(Cc2ccccc2)C1 (stereo partly drawn) [N-(1-Benzyl-pyrrolidin-3-yl)-N-methyl-4,6-Bis-((3R,5S)-3,5-diamino-piperidin-1-yl)-[1,3,5]triazine-2-amine] |  | < 64 µg/mL |
| N[C@@H]1C[C@H](N)CN(c2nc(Nc3ccc(NC(=O)c4c(O)ccc5ccccc45)c(O)c3)nc(N3C[C@H](N)C[C@H](N)C3)n2)C1 [N-{3-hydroxy-4-[(2-hydroxy-naphthalene-1-carbonyl)-amino]-phenyl}-4,6-Bis-((3R,5S)-3,5-diamino-piperidin-1-yl)-[1,3,5]triazine-2-amine] |  | < 16 µg/mL |
| N[C@@H]1C[C@H](N)CN(c2nc(Nc3nc4ccc([N+](=O)[O-])cc4s3)nc(N3C[C@H](N)C[C@H](N)C3)n2)C1 [N-(6-nitro-benzothiazol-2-yl)-4,6-Bis-((3R,5S)-3,5-diamino-piperidin-1-yl)-[1,3,5]triazine-2-amine] |  | < 16 µg/mL |
| Cl.NC(=O)[C@H](CO)Nc1nc(N2C[C@H](N)C[C@H](N)C2)nc(N2C[C@H](N)C[C@H](N)C2)n1 [(S)-2-[4-((3R,5S)-3,5-Diamino-piperidin-1-yl)-6-((3S,5R)-3,5-diamino-piperidin-1-yl)-[1,3,5]triazin-2-ylamino]-3-hydroxy-propionamide] | > 64 µg/mL |  |
| Cl.N[C@@H]1C[C@H](N)CN(c2nc(Nc3cccc(Br)c3)nc(N3C[C@H](N)C[C@H](N)C3)n2)C1 [N-(3-bromo-phenyl)-4,6-Bis-((3R,5S)-3,5-diamino-piperidin-1-yl)-[1,3,5]triazine-2-amine] | < 64 µg/mL |  |
| N[C@@H]1C[C@H](N)CN(c2nc(Nc3ccc(NS(=O)(=O)c4cc(Cl)cc(Cl)c4O)c(O)c3)nc(N3C[C@H](N)C[C@H](N)C3)n2)C1 [N-[4-(3,5-dichloro-2-hydroxy-benzenesulfonylamino)-3-hydroxy-phenyl]-4,6-Bis-((3R,5S)-3,5-diamino-piperidin-1-yl)-[1,3,5]triazine-2-amine] |  | < 16 µg/mL |
| O=S(=O)(Nc1ccc2cn[nH]c2c1)c1ccc(Nc2nc(N3CCCCC3)nc(N3CCNCC3)n2)cc1 [4-[4-((3S,5R)-3,5-Diamino-piperidin-1-yl)-6-piperazin-1-yl[1,3,5,-triazin-2-ylamino]-N-(1H-indazol-6-yl)-benzenesulfonamide] | > 64 µg/mL |  |
